In ChEMBL document CHEMBL1131847, “Opsin shift in an aldolase antibody” (Bioorg Med Chem Lett, 1999):
Active and inactive are the calls of the source. The rule behind the calls is not given here.

Assay: Compound (1.7 x 10E-3 M) was evaluated for the formation of all-trans retinal schiff base with Lysine residue which exhibits significant Opsin shift of naturally occurring visual pigments; Active
Assay type: functional

For `CC1=C(/C=C/C(C)=C/C=C/C(C)=C/C=O)C(C)(C)CCC1`, which Opsin shift activity is on record?
Its Opsin shift activity is “Active”.
